species on record: Rattus norvegicus; assay: Inhibition of rat recombinant geranylgeranyltransferase type I expressed in Escherichia coli assessed as residual enzyme activity for geranylgeranylation of K-Ras4B at 50 uM incubated for 30 mins in presence of [3H]GGPP by scintillation counting assay relative to control

In order of rising Activity:
1. O=C(O)C1=CC[C@@H](c2ccc(Cl)cc2)N(S(=O)(=O)c2ccc(Cl)cc2)[C@H]1c1ccc(Br)cc1  32.6%
2. C=CCS[C@@H]1C[C@@H](c2ccc(C)cc2)N(S(=O)(=O)c2ccccc2C)C[C@H]1C(=O)O  34.5%
3. COc1ccc([C@@H]2C[C@@H](SCc3ccc(Cl)cc3)[C@H](C(=O)O)CN2S(=O)(=O)c2ccc(C)cc2)cc1  40.7%
4. COc1ccc([C@@H]2C[C@@H](SCCc3ccccc3)[C@H](C(=O)O)CN2S(=O)(=O)c2ccc(C)cc2)cc1OC  44.1%
5. Cc1ccc(S(=O)(=O)N2[C@@H](c3cccc(F)c3)C(C(=O)O)=CC[C@H]2c2ccc(Cl)c(Cl)c2)cc1  45.1%
6. Cc1ccc([C@@H]2CC=C(C(=O)O)[C@H](c3ccc(F)cc3)N2S(=O)(=O)c2ccccc2C)cc1  50.9%
7. Cc1ccc([C@@H]2C[C@@H](SCc3ccc(Cl)cc3)[C@H](C(=O)O)CN2S(C)(=O)=O)cc1  51.1%
8. CS(=O)(=O)N1[C@@H](c2ccc(Cl)cc2)C(C(=O)O)=CC[C@H]1c1ccc(Cl)cc1  55%
9. Cc1ccc([C@@H]2C[C@@H](Sc3ccc(Cl)cc3)[C@H](C(=O)O)CN2S(=O)(=O)c2ccc(C)cc2)cc1  57%
10. Cc1ccc(S(=O)(=O)N2C[C@@H](C(=O)O)[C@H](SCc3ccc(C(C)(C)C)cc3)C[C@H]2c2ccc3c(c2)OCO3)cc1  59.3%
11. Cc1ccc([C@H]2C(C(=O)O)=CC[C@@H](c3ccc(Cl)cc3)N2S(=O)(=O)c2ccc(C)cc2)cc1  60.7%
12. Cc1ccc([C@@H]2CC=C(C(=O)O)[C@H](c3cccc(Cl)c3)N2S(=O)(=O)c2ccccc2C)cc1  62.3%
13. Cc1ccc([C@@H]2CC=C(C(=O)O)[C@H](c3cccc(F)c3)N2S(=O)(=O)c2ccccc2C)cc1  63.4%
14. CS(=O)(=O)N1[C@@H](c2cccc(Br)c2)C(C(=O)O)=CC[C@H]1c1ccccc1  63.5%
15. Cc1ccc(S(=O)(=O)N2[C@@H](c3cccc(F)c3)C(C(=O)O)=CC[C@H]2c2ccccc2)cc1  63.7%
16. COc1cccc([C@@H]2C[C@@H](SCC(C)C)[C@H](C(=O)O)CN2S(=O)(=O)c2ccc(C)cc2)c1  64.5%
17. CCCCCS[C@@H]1C[C@@H](c2ccc(OC)cc2)N(S(=O)(=O)c2ccccc2C)C[C@H]1C(=O)O  67.1%
18. COc1cccc([C@@H]2CC=C(C(=O)O)[C@H](c3cccc(Cl)c3)N2S(=O)(=O)c2ccc(C)cc2)c1  67.1%
19. COc1ccc([C@@H]2CC=C(C(=O)O)[C@H](c3ccc(F)cc3)N2S(=O)(=O)c2ccc(Cl)cc2)cc1  67.2%
20. CS(=O)(=O)N1[C@@H](c2ccc(F)cc2)C(C(=O)O)=CC[C@H]1c1ccccc1  67.2%
21. COc1ccc([C@@H]2CC=C(C(=O)O)[C@H](c3cccc(C)c3)N2S(=O)(=O)c2ccc(C)cc2)cc1  67.3%
22. Cc1ccc([C@@H]2CC=C(C(=O)O)[C@H](c3ccc(F)cc3)N2S(=O)(=O)c2ccccc2)cc1  68.1%
23. Cc1ccc([C@@H]2CC=C(C(=O)O)[C@H](c3cccc(Cl)c3)N2S(=O)(=O)c2ccc(C)cc2)cc1  69.4%
24. Cc1ccc([C@@H]2CC=C(C(=O)O)[C@H](c3cccc(C)c3)N2S(=O)(=O)c2ccccc2)cc1  69.8%
25. CCCCCCS[C@@H]1C[C@@H](c2ccc(CC)cc2)N(S(=O)(=O)c2ccc(C)cc2)C[C@H]1C(=O)O  70%
26. CCCCCS[C@@H]1C[C@@H](c2ccc(OC)cc2)N(S(=O)(=O)c2ccc(Cl)cc2)C[C@H]1C(=O)O  70.9%
27. CCOc1ccc([C@@H]2CC=C(C(=O)O)[C@H](c3ccc(Cl)cc3)N2S(=O)(=O)c2ccc(C)cc2)cc1  71.6%
28. Cc1ccc(S(=O)(=O)N2[C@@H](c3cccc(Br)c3)C(C(=O)O)=CC[C@H]2c2ccc(F)cc2)cc1  72.2%
29. Cc1ccc(S(=O)(=O)N2[C@@H](c3ccc(Br)cc3)C(C(=O)O)=CC[C@H]2c2cccc(C)c2)cc1  73.5%
30. Cc1ccc(S(=O)(=O)N2[C@@H](c3ccc(C(C)(C)C)cc3)C(C(=O)O)=CC[C@H]2c2ccc(Cl)c(Cl)c2)cc1  74.3%
31. COc1cccc([C@@H]2C[C@@H](Sc3ccc(C)cc3)[C@H](C(=O)O)CN2S(=O)(=O)c2ccc(C)cc2)c1  77%
32. CCOc1ccc([C@@H]2CC=C(C(=O)O)[C@H](c3cccc(Cl)c3)N2S(=O)(=O)c2ccc(C)cc2)cc1  78.9%
33. Cc1ccc(S(=O)(=O)N2[C@@H](c3cccc(Cl)c3)C(C(=O)O)=CC[C@H]2c2cccs2)cc1  79.5%
34. COc1ccc([C@@H]2C[C@@H](Sc3ccccc3)[C@H](C(=O)O)CN2S(=O)(=O)c2ccc(C)cc2)cc1  79.6%
35. CC(=O)C1=CC[C@@H](c2ccc(Cl)cc2)N(S(=O)(=O)c2ccc(C)cc2)C1  80.8%
36. CCCCS[C@@H]1C[C@@H](c2cccc(OC)c2)N(S(=O)(=O)c2ccc(C)cc2)C[C@H]1C(=O)O  83.9%
37. Cc1ccc(S(=O)(=O)N2[C@@H](c3ccc(C(C)(C)C)cc3)C(C(=O)O)=CC[C@H]2c2ccccc2F)cc1  84.2%
38. CCOc1ccc([C@@H]2C[C@@H](SC3CCCC3)[C@H](C(=O)O)CN2S(=O)(=O)c2ccc(C)cc2)cc1  84.6%
39. COc1ccc([C@@H]2C[C@@H](Sc3ccccc3)[C@H](C(=O)O)CN2S(=O)(=O)c2ccccc2C)cc1  84.8%
40. CCCS[C@@H]1C[C@@H](c2ccc(OCC)cc2)N(S(=O)(=O)c2ccc(C)cc2)C[C@H]1C(=O)O  84.9%
41. COc1ccc([C@@H]2CC=C(C(=O)O)[C@H](c3cccc(F)c3)N2S(=O)(=O)c2ccccc2C)cc1  86.6%
42. Cc1ccc(S(=O)(=O)N2[C@@H](c3ccc(C(C)(C)C)cc3)C(C(=O)O)=CC[C@H]2c2ccc3c(c2)OCO3)cc1  87.2%
43. CCOc1ccc([C@@H]2CC=C(C(=O)O)[C@H](c3cccc(F)c3)N2S(=O)(=O)c2ccc(C)cc2)cc1  87.5%
44. Cc1ccc(S(=O)(=O)N2[C@@H](c3ccc(C(C)(C)C)cc3)C(C(=O)O)=CC[C@H]2c2ccc(C#N)cc2)cc1  87.7%
45. COc1ccc([C@@H]2CC=C(C(=O)O)[C@H](c3ccc(C)cc3)N2S(=O)(=O)c2ccccc2)cc1  88.2%
46. CCc1ccc([C@@H]2CC=C(C(=O)O)[C@H](c3ccc(Cl)cc3)N2S(=O)(=O)c2ccc(C)cc2)cc1  89.8%
47. COc1ccc([C@@H]2CC=C(C(=O)O)[C@H](c3ccc(C(C)(C)C)cc3)N2S(=O)(=O)c2ccc(C)cc2)cc1OC  90.4%
48. Cc1ccc([C@@H]2C[C@@H](SCCC(C)C)[C@H](C(=O)O)CN2S(C)(=O)=O)cc1  93.4%
49. COc1ccc([C@@H]2C[C@@H](SC3CCCC3)[C@H](C(=O)O)CN2S(=O)(=O)c2ccccc2)cc1  94.5%
50. COc1cc([C@@H]2C[C@@H](Sc3ccc(C)cc3)[C@H](C(=O)O)CN2S(=O)(=O)c2ccc(C)cc2)cc(OC)c1OC  95.6%
51. Cc1ccccc1S(=O)(=O)N1[C@@H](c2ccc(C(C)(C)C)cc2)C(C(=O)O)=CC[C@H]1c1ccc(Cl)cc1  97.3%
52. COc1ccc(S[C@@H]2C[C@@H](c3ccccc3)N(S(=O)(=O)c3ccc(C)cc3)C[C@H]2C(=O)O)cc1  99.1%
53. CC(=O)C1=CC[C@@H](c2cccc(C)c2)N(S(=O)(=O)c2ccc(C)cc2)C1  102%
54. Cc1ccc(S(=O)(=O)N2[C@@H](c3ccc(C(C)(C)C)cc3)C(C(=O)O)=CC[C@H]2c2ccc(Cl)cc2)cc1  102%
55. COc1cccc([C@@H]2C[C@@H](SC3CCCC3)[C@H](C(=O)O)CN2S(=O)(=O)c2ccc(C)cc2)c1  113%

— ChEMBL document CHEMBL4421722, “Inhibitors of protein prenyltransferases” (2013)
